The values below are quoted from earlier work in US10392388B2, “Meropenem derivatives and uses thereof” (Kala Pharmaceuticals, Inc., priority 2013, dated 2019).

The subject of data set [1] is Pseudomonas aeruginosa.

Turning to `C[C@@H](O)[C@H]1C(=O)N2C(C(=O)O)=C(S[C@@H]3CN[C@H](C(=O)N(C)C)C3)[C@H](C)[C@H]12` [Meropenem, meropenem], the water solubility is over 1000 µg/mL. The MIC90 result in data set [1] was “about 8 μg/mL”.
